{"source": "patent US11179348B2", "about": "“Combination comprising pterostilbene for the treatment of cancer” (FUNDACIÓN UNIVERSIDAD CATÓLICA DE VALENCIA SAN VICENTE …, priority 2015, dated 2021)", "key": {"[1]": {"assay": "Pter and metabolite levels in plasma, tumor, brain and pituitary after i.v. administration (LC-MS/MS)", "format": "in vivo, mice", "conditions": "for highest concentration in plasma / highest concentration in tumors: 5 min after i.v. 30 mg Pter/kg", "experimental": "Determination of Pter and its Metabolites by High-Pressure Liquid Chromatography and Mass Spectrometry (LC-MS/MS).\nLC-MS/MS was carried out, as previously described (Ferrer, P. et al. Neoplasia 7, 37-47 (2005); Azzolini, M. et al. Mol Nutr Food Res 58, 2122-2132 (2014)) in detail, using a TSQ Vantage™ Triple Quadrupole Mass Spectrometer (Thermo Scientific, Waltham, Mass.) equipped with a Shimadzu LC-10ADvp. pump and a SLC-10Avp. controller system with a SIL-10ADvp. autoinjector."}, "LNCaP cells": {"tested_on": "LNCaP cells", "assay": "GSH levels and glutathione- and oxidative stress-related enzyme activities in LNCaP cells growing in vivo", "parameters": "species or system human", "conditions": "in vivo Pter, day 49", "experimental": "To measure enzyme activity, isolated tumor cells were homogenized in 0.1 M phosphate buffer (pH 7.2) at 4° C. GCL and GSS activities were measured as described previously (Obrador, E. et al. Hepatology 35, 74-81 (2002)). GPX (selenium dependent) activity was measured as described by Flohé and Gunzler (Flohe, L. & Gunzler, W. A. Methods Enzymol 105, 114-121 (1984)) using H2O2 as a substrate. GSR activity was determined as described by Akerboom and Sies (Akerboom, T. P. et al, Bull Eur Physiopathol Respir 17 Suppl, 221-227 (1981)). GGT activity was measured as described previously (Obrador, E. et al. Hepatology 35, 74-81 (2002)). GST activity was measured using an assay kit from Sigma. TXNRD activity, defined by the concentration of sodium-lipoate (disulfide) reduced to dehydrolipoate (dithiol) per milligram protein, was measured as previously described (Javvadi, P. et al. Cancer Res 70, 1941-1950 (2010)). SOD activity was measured as described by Flohé and Otting (Flohe, L. & Otting, F. Methods Enzymol 105, 93-104 (1984).) using 2 mM cyanide in the assay medium to distinguish mangano-type enzyme (SOD2) from the cuprozinc type (SOD1). CAT activity was analyzed as described by Aebi (Aebi, H. Methods Enzymol 105, 121-126 (1984)). NOX activity was measured by chemiluminescence following the methodology of Wind et al. (Wind, S. et al. Comparative pharmacology of chemically distinct NADPH oxidase inhibitors. Br J Pharmacol 161, 885-898 (2010)). Protein concentration was determined with the Pierce BCA protein assay (Fisher Scientific, Waltham, Mass.).\nGSH, GSSG, NADP^+ and NADPH Determination.\nGSH and GSSG were determined, following procedures previously described (Obrador, E. et al. PLoS One 9, e96466 (2014)), by LC/MS using the same equipment described above for pterostilbene determination. Cell processing was performed according to published methodology, where rapid N-ethylmaleimide derivatization was used to prevent GSH auto-oxidation (Asensi, M. et al. Anal Biochem 217, 323-328 (1994)). NADP^+ and NADPH were quantitated using an assay kit from Sigma (St. Louis, Mo.).\nIsolation of Tumor Cells from Mouse Xenografts Using Enzymatic Digestion and a double Ficoll gradient.\nTo maximize the amount of isolated cells, avoiding the use of RFP-transfected cells and subsequent laser microdissection, an alternative methodology was set up. To maximize cell yield and viability the following combination of enzymes was used: collagenase III (200 U/ml; Sigma-Aldrich), DNase I (200 U/ml; Sigma-Aldrich) and trypsin (5 mg/ml; Invitrogen), and a non-enzymatic dissociation buffer (NEDB, Invitrogen). Briefly, mice were killed, and tumors were removed (avoiding skin, muscle and fat) into cold culture media and processed immediately. The tumors were minced into 1-3 mm fragments, which were then incubated with the dissociation solution (see above) for 30 min at 37° C. The tumor fragments were mixed up and down every 10 min using a […] micropipette with a tip cut to a diameter adapted to tissue fragment size. After each incubation period, the fragments were filtered through a […] nylon mesh cell strainer (BD Biosciences, San Diego, Calif., USA). The released cells were centrifuged at 1200 r.p.m. for 2 min and stored in cold CO2-independent medium with 30% FCS at […]. Fresh dissociation solution was added to the remaining tissue fragments for 30 min. Dissociation was stopped when no additional cells were released. The fragments were pushed through a sieve and all cells from all incubation periods were pooled and counted.\nThe dissociated cells were layered onto a double Ficoll gradient (Histopaque; Sigma-Aldrich; densities 1.077 and 1.119) and spun at 700 g for 30 min at room temperature. Cells removed from both interfaces were pooled and washed two times in CO2-independent medium and stored at 4° C. Debris and red blood cell elimination was improved with the dual-density gradient. […]"}}, "note": "Where two headings read alike, the source gives them in different places."}
{"smiles": "COc1cc(/C=C/c2ccc(O)cc2)cc(OC)c1", "note": "[Pter, trans-3,5-dimethoxy-4′-hydroxystilbene]", "values": [{"measurement": "approx. mean level in the hypophysis", "setting": "[1]; 10-30 min after i.v. 30 mg/kg", "result": "~15", "unit": "µM"}, {"measurement": "level in whole brain", "setting": "[1]; 60 min after i.v. 30 mg/kg", "result": "approx. 1 nmol/g"}, {"measurement": "level in whole brain", "setting": "[1]; 120 min after i.v. 30 mg/kg", "result": "non-detectable levels"}, {"measurement": "highest concentration in plasma", "setting": "[1]; A2058-bearing mice", "result": "112 ± 17", "unit": "µM"}, {"measurement": "highest concentration in tumors", "setting": "[1]; A2058 tumors", "result": "28 ± 7", "unit": "µM"}, {"measurement": "highest concentration in tumors", "setting": "[1]; MeWo tumors", "result": "33 ± 7", "unit": "µM"}, {"measurement": "highest concentration in plasma", "setting": "[1]; MeWo-bearing mice", "result": "116 ± 23", "unit": "µM"}, {"measurement": "highest concentration in tumors", "setting": "[1]; MelJuso tumors", "result": "25 ± 7", "unit": "µM"}, {"measurement": "highest concentration in plasma", "setting": "[1]; MelJuso-bearing mice", "result": "98 ± 13", "unit": "µM"}, {"measurement": "levels in plasma after the last time point", "setting": "[1]; after 480 min", "result": "undetectable"}, {"measurement": "levels in the hypophysis compared with the whole brain", "setting": "[1]; after i.v. 30 mg/kg", "result": "significantly higher"}, {"measurement": "lowest concentration in plasma", "setting": "[1]; at 240-480 min after i.v. 30 mg Pter/kg", "result": "approx. 1 μM"}, {"measurement": "half-life", "setting": "[1]; female, nu/nu nude, mouse, melanoma tumor, iv, 30 mg/kg, melanoma tumors, 30 mg Pter/kg i.v., read-out: half-life in the melanoma tumors", "result": "36 to 40", "unit": "min"}, {"measurement": "half-life", "setting": "[1]; female, nu/nu nude, mouse, plasma, iv, 30 mg/kg, B16-F1-bearing mice, Pter 30 mg/kg i.v., read-out: half-life in circulating plasma", "result": 61.2, "unit": "min"}, {"measurement": "half-life", "setting": "[1]; female, nu/nu nude, mouse, plasma, iv, 30 mg/kg, melanoma-bearing mice, 30 mg Pter/kg i.v., read-out: half-life in circulating plasma", "result": "70 to 73", "unit": "min"}, {"measurement": "half-life", "setting": "[1]; female, nu/nu nude, mouse, tumor (B16-F1), iv, 30 mg/kg, B16-F1 tumors, Pter 30 mg/kg i.v., read-out: half-life in the tumors", "result": 29.3, "unit": "min"}, {"measurement": "concentration at 180 min", "setting": "[1]; female, nu/nu nude, mouse, tumor, iv, 30 mg/kg, at 180 min after i.v. 30 mg Pter/kg, read-out: lowest concentration in tumors", "result": "~1000", "unit": "nM"}, {"measurement": "approximate mean concentration within the tumor", "setting": "[1]; first hour after i.v. 30 mg Pter/kg", "result": "~15", "unit": "µM"}, {"measurement": "main Pter-derived metabolite generated in vivo (plasma)", "setting": "[1]; i.v. 30 mg Pter/kg", "result": "pterostilbene-4′-sulfate (Pter-S)"}, {"measurement": "CAT", "setting": "LNCaP cells", "result": "1.9 ± 0.5", "unit": "mU/10^6 cells"}, {"measurement": "GCL", "setting": "LNCaP cells", "result": "45 ± 14", "unit": "mU/10^6 cells"}, {"measurement": "GSH", "setting": "LNCaP cells", "result": "3.7 ± 1.5", "unit": "nmol/10^6 cells"}, {"measurement": "GSS", "setting": "LNCaP cells", "result": "4.0 ± 1.2", "unit": "mU/10^6 cells"}, {"measurement": "GSSG", "setting": "LNCaP cells", "result": "0.12 ± 0.05", "unit": "nmol/10^6 cells"}, {"measurement": "SOD1", "setting": "LNCaP cells", "result": "0.5 ± 0.1", "unit": "U/10^6 cells"}, {"measurement": "SOD2", "setting": "LNCaP cells", "result": "0.01 ± 0.005", "unit": "U/10^6 cells"}]}
